Assay results as given in US8536187B2 (Gilead Sciences, Inc., priority 2008, dated 2013).
pEC50: −log10 of the molar value.

Assays:
[1] = tested on: HCV replicon in human hepatoma Huh-7 cell line; experiment: Anti-HCV replicon assay, EC50 (luciferase luminescence); type: cell-based; conditions: Hepatitis C virus, Huh-7, 72 h
Method: (§1) The anti-HCV activity of the pyrido[3,2-d]pyrimidine derivatives of this invention was tested in a human hepatoma Huh-7 cell line harboring a HCV replicon. The assay comprised the following steps: • Step 1: compound preparation and serial dilution: serial dilution is performed in 50% DMSO in a 384-well plate. A solution containing a compound at 100-fold concentration of the starting final serial dilution concentration was prepared in 50% DMSO and added to the pre-specified wells in column 1 of a polypropylene 384-well plate. The plate was then placed on a Precision 2000 Workstation to start the serial dilution. After the serial dilution, a volume of 2 μL of the solution was transferred from the 384-well plate to a 96-well cell culture plate containing 100 μL of cell media on a Biomek FX Workstation. The DMSO concentration in the final assay condition was 0.5% after cells are added to the plate and the total volume in each well is brought to 200 μL. • Step 2: to each well of the serial dilution plate prepared above, 100 μL of cell media containing 6000 suspended Huh-7 HCV replicon cells was added with a Multidrop workstation. The plates were incubated for 3 days at 37° C. with 5% CO2. • Step 3: detection: • a) for the EC50 assay, the media in a 96-well cell culture plate was aspirated with a Biotek EL405 plate-washer. A volume of 200 μL of a solution containing a 1:1 mixture of cell-lysis buffer (Promega, Luciferase Cell Culture Lysis 5× Reagent, cat. #E1531) and luciferase substrate solution (Promega, Luciferase Assay, cat.# E4550) was added to each well of the plate with Multidrop. The plate was incubated for 30 minutes at room temperature before the luminescence signal was measured with a TopCount plate-reader. • b) for the CC50 assay, a volume of 100 μL of pre-mixed CellTiter-Glo (Promega, cat.# G7572) solution is added directly to the cell culture in each well of the plate and the luminescence signal is measured with a TopCount plate-reader after 10 minutes of incubation at room temperature.

[2] = CC50 assay (CellTiter-Glo) in Huh-7 HCV replicon cells; type: cell-based; conditions: human, Table 2, 3 days incubation
Method: as §1

Structure (SMILES) | pEC50 [1] | CC50 at 3 days [2] [nM]
COCCNc1nc(NCC(F)(F)F)c2nc(-c3ccc(OC)c(S(C)(=O)=O)c3)ccc2n1 [Example 153, 6-(4-methoxy-3-(methylsulfonyl)phenyl)-N^2-(2-methoxyethyl)-N^4-(2,2,2-trifluoroethyl)pyrido[3,2-d] pyrimidine-2,4-diamine] | > 7.00 | > 10000
NS(=O)(=O)c1cc(F)cc(CNc2nc(NC3(C(F)(F)F)CC3)c3nc(C#CC4CC4)ccc3n2)c1 [Example 63, 3-((6-(2-cyclopropylethynyl)-4-(1-(trifluoromethyl)cyclopropylamino)pyrido[3,2-d]pyrimidin-2-ylamino)methyl)-5-fluorobenzenesulfonamide] | > 7.00 | > 10000
NS(=O)(=O)c1ccc(CNc2nc(NC3(C(F)(F)F)CC3)c3nc(-c4ccc(F)cc4)ccc3n2)cc1 [Example 23, 4-{[6-(4-fluoro-phenyl)-4-(1-trifluoromethyl-cyclopropylamino)-pyrido[3,2-d]pyrimidin-2-ylamino]-methyl}-benzenesulfonamide] | > 7.00 | 1000 to 10000
NS(=O)(=O)c1cccc(CNc2nc(NC3(C(F)(F)F)CCCCC3)c3nc(-c4ccc(F)cc4)ccc3n2)c1 [Example 66, 3-((6-(4-fluorophenyl)-4-(1-(trifluoromethyl)cyclohexylamino)pyrido[3,2-d]pyrimidin-2-ylamino)methyl)benzene-sulfonamide] | 6.60 to 7.00 | > 10000
N#Cc1cc(F)ccc1-c1ccc2nc(NCc3cccc(S(N)(=O)=O)c3)nc(NC3(C(F)(F)F)CC3)c2n1 [Example 98, 3-((6-(2-cyano-4-fluorophenyl)-4-(1-(trifluoromethyl)cyclopropyl-amino)pyrido[3,2-d]pyrimidin-2-ylamino)methyl)benzene-sulfonamide] | > 7.00 | 1000 to 10000
FC(F)Oc1ccc(-c2ccc3nc(NCc4ccc(-n5cncn5)cc4)nc(NCC(F)(F)F)c3n2)cn1 [Example 245, N^2-(4-(1H-1,2,4-triazol-1-yl)benzyl)-6-(6-(difluoro-methoxy)pyridin-3-yl)-N^4-(2,2,2-trifluoroethyl)pyrido [3,2-d]pyrimidine-2,4-diamine] | > 7.00 | > 10000
CS(=O)(=O)c1cccc(-c2ccc3nc(NCc4ccc(-n5cncn5)cc4)nc(OC4CCC4)c3n2)c1 [Example 202, N-(4-(1H-1,2,4-triazol-1-yl)benzyl)-4-cyclobutoxy-6-(3-(methylsulfonyl)phenyl)pyrido [3,2-d]pyrimidin-2-amine] | > 7.00 | > 10000
CS(=O)(=O)c1cccc(CNc2nc(NCC(F)(F)F)c3nc(-c4ccc(OC(F)F)c(S(C)(=O)=O)c4)ccc3n2)c1 [Example 174, N^2-(3-(methylsulfonyl)benzyl)-6-(4-(difluoromethoxy)-3-(methylsulfonyl)phenyl)-N^4-(2,2,2-trifluoroethyl)pyrido [3,2-d]pyrimidine-2,4-diamine] | > 7.00 | < 1000
CC(Cn1cncn1)Nc1nc(NC2(C(F)(F)F)CC2)c2nc(-c3ccc(N)nc3)ccc2n1 (centres unmarked) [Example 31, 6-(6-amino-pyridin-3-yl)-N2-(1-methyl-2-[1,2,4]triazol-1-yl-ethyl)-N4-(1-trifluoromethyl-cyclopropyl)-pyrido[3,2-d]pyrimidine-2,4-diamine] | > 7.00 | > 10000
C[C@@H](Nc1nc(NCC(F)(F)F)c2nc(C#Cc3cncs3)ccc2n1)c1ccc(S(N)(=O)=O)cc1 [Example 297, (R)-4-(1-(6-(2-(thiazol-5-yl)ethynyl)-4-(2,2,2-trifluoro-ethylamino)pyrido[3,2-d]pyrimidin-2-ylamino)ethyl) benzenesulfonamide] | 5.70 to 6.60 | > 10000
CC#Cc1ccc2nc(N[C@H](C)c3ccc(S(N)(=O)=O)cc3)nc(NCC(F)(F)F)c2n1 [Example 298, (R)-4-(1-(6-(prop-1-ynyl)-4-(2,2,2-trifluoroethylamino)pyrido[3,2-d]pyrimidin-2-ylamino)ethyl)benzene-sulfonamide] | > 7.00 | > 10000
Cc1ccc(-c2ccc3nc(NCc4ccc(-n5cncn5)cc4)nc(NC4(C(F)(F)F)CC4)c3n2)cc1S(N)(=O)=O [Example 42, 5-(2-(4-(1H-1,2,4-triazol-1-yl)benzylamino)-4-(1-(trifluoromethyl)cyclopropyl-amino)pyrido[3,2-d]pyrimidin-6-yl)-2-methylbenzene-sulfonamide] | > 7.00 | 1000 to 10000
CCOc1ccc(-c2ccc3nc(N[C@H](C)c4ccc(S(N)(=O)=O)cc4)nc(NCC(F)(F)F)c3n2)cc1S(N)(=O)=O [Example 261, 4-((R)-1-(6-(4-ethoxy-3-(aminosulfonyl)phenyl)-4-(2,2,2-trifluoroethylamino)pyrido[3,2-d]pyrimidin-2-ylamino)ethyl)benzene-sulfonamide] | > 7.00 | > 10000
NS(=O)(=O)c1ccc(CNc2nc(NC3(C(F)(F)F)CC3)c3nc(-c4ccc(N5CCCS5(=O)=O)cc4)ccc3n2)cc1 [Example 130, 4-((6-(4-(1,1-dioxo-isothiazolidin-2-yl)phenyl)-4-(1-(trifluoromethyl)cyclopropyl-amino)pyrido[3,2-d]pyrimidin-2-ylamino)methyl)benzene-sulfonamide] | > 7.00 | < 1000
CC(Cn1cncn1)Nc1nc(NC2(C(F)(F)F)CC2)c2nc(-c3ccc(NC4CC4)nc3)ccc2n1 (centres unmarked) [Example 114, N^2-(1-(1H-1,2,4-triazol-1-yl)propan-2-yl)-6-(6-(cyclopropylamino)pyridin-3-yl)-N^4-(1-(trifluoromethyl)cyclopropyl)pyrido[3,2-d] pyrimidine-2,4-diamine] | > 7.00 | > 10000
C[C@H](Nc1nc(NCc2ccc(-n3cncn3)cc2)nc2ccc(C#CC3CC3)nc12)C(F)(F)F [Example 292, (S)-N^2-(4-(1H-1,2,4-triazol-1-yl)benzyl)-6-(2-cyclopropyl-ethynyl)-N^4-(1,1,1-trifluoro-propan-2-yl)pyrido[3,2-d] pyrimidine-2,4-diamine] | 5.70 to 6.60 | > 10000
Fc1cc(-c2ccc3nc(NCc4ccc(-n5cncn5)cc4)nc(NC4(C(F)(F)F)CC4)c3n2)cnc1NC1CC1 [Example 65, N^2-(4-(1H-1,2,4-triazol-1-yl)benzyl)-6-(6-(cyclopropylamino)-5-fluoropyridin-3-yl)-N^4-(1-(trifluoromethyl)cyclopropyl) pyrido[3,2-d]pyrimidine-2,4-diamine] | > 7.00 | 1000 to 10000
C[C@@H](Nc1nc(NC2(C(F)(F)F)CC2)c2nc(-c3cccc(S(C)(=O)=O)c3)ccc2n1)c1ccc(-n2cncn2)cc1 [Example 47, N^2-((R)-1-(4-(1H-1,2,4-triazol-1-yl)phenyl)ethyl)-6-(3-(methylsulfonyl)phenyl)-N^4-(1-(trifluoromethyl)cyclopropyl) pyrido[3,2-d]pyrimidine-2,4-diamine] | > 7.00 | 1000 to 10000
NS(=O)(=O)c1cc(CNc2nc(NCC(F)(F)F)c3nc(C#CC4CC4)ccc3n2)cc(C(F)(F)F)c1 [Example 278, 3-((6-(2-cyclopropylethynyl)-4-(2,2,2-trifluoroethylamino)pyrido[3,2-d]pyrimidin-2-ylamino)methyl)-5-(trifluoro-methyl)benzenesulfonamide] | 6.60 to 7.00 | > 10000
